Assay results reported in BigSolDB 2.1.

COC1=CC(=O)C[C@@H](C)[C@]12Oc1c(Cl)c(OC)cc(OC)c1C2=O
Conditions | solubility (mole fraction)
in 1,2-dichloroethane, 290.05 K | 0.0197
in 1,2-dichloroethane, 294.3 K | 0.0209
in 1,2-dichloroethane, 300.25 K | 0.0222
in 1,2-dichloroethane, 305.55 K | 0.0236
in 1,2-dichloroethane, 310.05 K | 0.0251
in 1,2-dichloroethane, 315.65 K | 0.0268
in 1,2-dichloroethane, 319.35 K | 0.0289
in 1,2-dichloroethane, 324.05 K | 0.0311
in 1,2-dichloroethane, 329.65 K | 0.0335
in 2-butanone, 289.65 K | 0.00826
in 2-butanone, 296.95 K | 0.00941
in 2-butanone, 302.95 K | 0.0103
in 2-butanone, 308.25 K | 0.0117
in 2-butanone, 315.05 K | 0.0128
in 2-butanone, 320.4 K | 0.0141
in 2-butanone, 325.45 K | 0.0151
in 2-butanone, 330.35 K | 0.0163
in DMAc, 296.2 K | 0.0252
in DMAc, 301.25 K | 0.0276
in DMAc, 305.75 K | 0.0303
in DMAc, 310.75 K | 0.0326
in DMAc, 314.95 K | 0.0344
in DMAc, 319.25 K | 0.0369
in DMAc, 324.75 K | 0.0395
in DMAc, 330.05 K | 0.0422
in DMAc, 336.15 K | 0.0452
in DMAc, 340.25 K | 0.0488
in DMAc, 345.75 K | 0.0518
in DMAc, 350.55 K | 0.0549
in DMAc, 354.78 K | 0.0582
in DMSO, 296.75 K | 0.0167
in DMSO, 301.15 K | 0.0186
in DMSO, 306.15 K | 0.0204
in DMSO, 310.85 K | 0.0218
in DMSO, 315.55 K | 0.0239
in DMSO, 320.55 K | 0.026
in DMSO, 326.55 K | 0.0282
in DMSO, 331.95 K | 0.0302
in DMSO, 336.75 K | 0.0324
in DMSO, 341.05 K | 0.0345
in DMSO, 346.25 K | 0.0368
in DMSO, 351.7 K | 0.0393
in DMSO, 357.6 K | 0.0415
in NMP, 295.55 K | 0.0421
in NMP, 300.65 K | 0.0451
in NMP, 305.75 K | 0.048
in NMP, 310 K | 0.0511
in NMP, 315.1 K | 0.0541
in NMP, 320.6 K | 0.057
in NMP, 325.45 K | 0.0601
in NMP, 330.45 K | 0.0631
in NMP, 335.55 K | 0.0666
in NMP, 340.35 K | 0.0704
in NMP, 345.55 K | 0.0758
in NMP, 350.35 K | 0.0795
in NMP, 355.65 K | 0.083
in acetone, 281.95 K | 0.00648
in acetone, 286.4 K | 0.0071
in acetone, 291.85 K | 0.00776
in acetone, 296.4 K | 0.00853
in acetone, 300.8 K | 0.00941
in acetone, 305.05 K | 0.0102
in acetone, 310.25 K | 0.0117
in acetone, 313.65 K | 0.0129
in acetone, 317.05 K | 0.0143
